This passage reports IC50 and melting point results from US7713969B2, “Compositions and methods for treatment of cancer” (ArQule, Inc., priority 2005, dated 2010).

One data set concerns NCI-H446. As to the kind of experiment: Cell viability MTS assay. The data set is classed as cell-based, human. As to the method: (§1) Cell viability was determined by measuring the activity of dehydrogenase enzymes in metabolically active cells using a tetrazolium compound, MTS. The assay was performed as described in Promega Technical Bulletin No. 169 (CellTiter 96 Aqueous Non-Radioactive Cell Proliferation Assay). Thirteen human cancer cell lines were assayed (see, e.g., Table 1). Cells were maintained at 37° C., 5% CO2. Adherent cells were maintained DMEM media (4.5 g/L glucose) supplemented with 15% heat-inactivated FBS, 10 mM L-glutamine, and 10 mM Hepes pH 7.5. Suspension cells were maintained in RPMI 1640 media, supplemented with 10% heat-inactivated FBS and 10 mM Hepes pH 7.5. Briefly, cells were seeded in 96-well plates as set forth in Table 1 and incubated for 16-24 hours. Candidate compounds were serially diluted in DMSO, further diluted in cell culture media, and then added to cells (final DMSO concentration of 0.33%). Cells were incubated in the presence of candidate compound for 72 hours. MTS stock solution (MTS 2 gm/L, PMS […] in PBS) was added to the cells (final concentration MTS […] and PMS 7.67 mg/L) and incubated for 4 hours. SDS was added to a final concentration of 1.4% and absorbance at 490 nm was measured within two hours using a platereader. The IC50 was defined as the concentration of compound that results in a 50% reduction in the number of viable cells as compwered to control wells treated with DMSO only (0.33%) and was calculated using non-linear regression analyswas. IC50 values were given in Table 2 for the compounds listed.
On the technique in general: Formazan colour is commonly taken as a measure of viable cells.

For a further data set, the system named is NCI-H69. As to the kind of experiment: Cell viability MTS assay. The data set is classed as cell-based, human. As to the method: as §1
For another data set, the system named is NCI-H82. In words: Cell viability MTS assay. The data set is classed as cell-based, human. The procedure:
as §1

In the next data set the test system is HT29. As to the kind of experiment: Cell viability MTS assay. The data set is classed as cell-based, human. The procedure:
as §1

In another data set the test system is MDA-MB-231. In words: Cell viability MTS assay. Format: cell-based, human. As to the method: as §1
The test system of a further data set is SK-MEL-28. As to the kind of experiment: Cell viability MTS assay. Format: cell-based, human. The settings on record: Homo sapiens, SK-MEL-28, 72 hours with compound. As to the method: as §1
The subject of another data set is DU-145. In words: Cell viability MTS assay. Format: cell-based, human. Particulars: Homo sapiens, DU-145, 72 hours with compound. As to the method: as §1
The next data set has as its system K562. As to the kind of experiment: Cell viability MTS assay. Particulars: Homo sapiens, K562, 72 hours with compound. The data set is classed as cell-based, human. As to the method:
as §1

A further data set concerns MCF7. In words: Cell viability MTS assay. The data set is classed as cell-based, human. The settings on record: Homo sapiens, MCF7, 72 hours with compound. The procedure: as §1
The subject of the next data set is SKOV-3. In words: Cell viability MTS assay. The data set is classed as cell-based, human. Particulars: Homo sapiens, SK-OV-3, 72 hours with compound. The procedure: as §1
The subject of another data set is A549. As to the kind of experiment: Cell viability MTS assay. Format: cell-based, human. The settings on record: Homo sapiens, A549, 72 hours with compound. As to the method:
as §1

For the next data set, the system named is PC-3. As to the kind of experiment: Cell viability MTS assay. Format: cell-based, human. Particulars: Homo sapiens, PC-3, 72 hours with compound. The procedure:
as §1

The test system of the next data set is HCT-116. As to the kind of experiment: Cell viability MTS assay. The data set is classed as cell-based, human. The settings on record: Homo sapiens, HCT-116, 72 hours with compound. The procedure: as §1
[1] abbreviates: Homo sapiens, NCI-H446, 72 hours with compound.
Where [2] appears, read: Homo sapiens, NCI-H82, 72 hours with compound.
Where [3] appears, read: Homo sapiens, HT-29, 72 hours with compound.
The mark [4] stands for this setting: Homo sapiens, MDA-MB-231, 72 hours with compound.

By IC50 is commonly meant the concentration needed to halve the response being measured. On to `O=C1NC(=O)[C@@H](c2cn3c4c(cccc24)CCC3)[C@@H]1c1cccs1` (racemic) [Example 47, (±)-Trans-3-(5,6-dihydro-4H-pyrrolo[3,2,1-ij]quinolin-1yl)-4-(2-thiophen-2-yl)pyrrolidine-2,5-dione], for which the half-maximal inhibitory concentration (IC50) with NCI-H446 (72 hours with compound) was found to be 9.82 µM; in the data set on NCI-H69 (72 hours with compound) it was 4.45 µM; with NCI-H82 (72 hours with compound), 7.25 µM; in the data set with HT29 (72 hours with compound), 18.3 µM; in the data set with MDA-MB-231 (72 hours with compound), 19.9 µM.

`O=C1NC(=O)[C@@H](c2cn3c4c(cccc24)CCC3)[C@@H]1c1ccccc1Cl` (racemic) [Example 50, (±)-Trans-3-(5,6-dihydro-4H-pyrrolo[3,2,1-ij]quinolin-1yl)-4-(2-chlorophenyl)-pyrrolidine-2,5-dione]: the IC50 came to 4.22 µM in the data set with NCI-H446 (setting [1]); 5.41 µM with NCI-H69 (Homo sapiens, NCI-H69, 72 hours with compound); 4.65 µM in the data set with NCI-H82 (setting [2]); 8.51 µM in the data set on HT29 (setting [3]); 4.56 µM with MDA-MB-231 (setting [4]).

As to `Cn1cc([C@@H]2C(=O)NC(=O)[C@H]2c2cn3c4c(cccc24)CCC3)c2ccccc21` (racemic) [Example 51, (±)-Trans-3-(5,6-dihydro-4H-pyrrolo[3,2,1-ij]quinolin-1yl)-4-(N-methylindol-3-yl)pyrrolidine-2,5-dione], the results for the half-maximal inhibitory concentration (IC50) with NCI-H446 (setting [1]), in the data set with NCI-H82 (setting [2]) and in the data set on MDA-MB-231 (setting [4]) were 65.7 µM, 37.7 µM and 67.3 µM, respectively.

Turning to `CN1C(=O)[C@H](c2cn(C)c3ccccc23)[C@H](c2cn3c4c(cccc24)CCC3)C1=O` (racemic) [Example 61, (±)-cis-3-(5,6-dihydro-4H-pyrrolo[3,2,1-ij]quinolin-1-yl)-4(1-methylindol-3-yl)-1-methylpyrrolidine-2,5-dione], the IC50 in the data set on SK-MEL-28 is more than 100 µM; in the data set with DU-145 it was more than 100 µM; in the data set on HT29 (setting [3]), more than 100 µM; with K562, 18.7 µM; with MCF7, more than 100 µM; in the data set on SKOV-3 it was 37.6 µM. The IC50 in the data set with A549 was 78.9 µM; in the data set on MDA-MB-231 (setting [4]), more than 100 µM; with PC-3, more than 100 µM; in the data set with HCT-116 it was 96.2 µM.

The melting point is the temperature, or range, at which the solid turns liquid. Turning to `COc1cccc([C@@H]2C(=O)NC(=O)[C@H]2c2cn3c4c(cccc24)CCC3)c1` (racemic) [Example 68, (±)-Trans-3-(5,6-dihydro-4H-pyrrolo[3,2,1-ij]quinolin-1-yl)-4-(3-methoxyphenyl)pyrrolidine-2,5-dione], the melting point fell in the range of 87 to 91 °C. In the data set on HT29 (setting [3]), the IC50 was 3.06 µM. Moreover, the IC50 in the data set on MDA-MB-231 (setting [4]) was 14.7 µM.

As for `O=C1NC(=O)[C@@H](c2cn3c4c(cccc24)CCC3)[C@@H]1c1cccc(O)c1` (racemic) [Example 69, (±)-Trans-3-(5,6-dihydro-4H-pyrrolo[3,2,1-ij]quinolin-1-yl)-4-(3-hydroxyphenyl)pyrrolidine-2,5-dione], the melting point fell in the range of 108 to 110 °C. In addition, in the data set with HT29 (setting [3]), the half-inhibitory concentration (IC50) stood at 55.4 µM. Further, the concentration for half-maximal inhibition (IC50) in the data set on MDA-MB-231 (setting [4]) worked out at 65.9 µM.

The molecule `O=C1NC(=O)[C@@H](c2cn3c4c(cccc24)CCC3)[C@@H]1c1ccc(O)cc1` (racemic) [Example 72, (±)-Trans-3-(5,6-dihydro-4H-pyrrolo[3,2,1-ij]quinolin-1-yl)-4-(4-hydroxyphenyl)pyrrolidine-2,5-dione] returned a melting point of 105 to 107 °C. Also, in the data set on HT29 (setting [3]), the concentration for half-maximal inhibition (IC50) was more than 100 µM. For the same molecule, in the data set on MDA-MB-231 (setting [4]), the IC50 was more than 100 µM.

As for `O=C1NC(=O)[C@@H](c2cn3c4c(cccc24)CCC3)[C@H]1c1c[nH]c2ccccc12` [3(R),4(S)-3-(5,6-dihydro-4H-pyrrolo[3,2,1-ij]quinolin-1-yl)-4(1H-indol-3-yl)pyrrolidine-2,5-dione], the half-inhibitory concentration (IC50) was 1.27 µM with NCI-H446 (72 hours with compound); 1.85 µM in the data set on NCI-H69 (72 hours with compound); 1.49 µM in the data set on NCI-H82 (72 hours with compound); 5.5 µM in the data set on HT29 (72 hours with compound); 3.69 µM in the data set with MDA-MB-231 (72 hours with compound).

`O=C1NC(=O)[C@@H](c2c[nH]c3ccccc23)[C@H]1c1cn2c3c(cccc13)CCC2` [3(S),4(R)-3-(5,6-dihydro-4H-pyrrolo[3,2,1-ij]quinolin-1-yl)-4(1H-indol-3-yl)pyrrolidine-2,5-dione]: the IC50 in the data set on NCI-H446 (72 hours with compound) came to 1.42 µM; in the data set with NCI-H69 (72 hours with compound) it was 2.07 µM; in the data set on NCI-H82 (72 hours with compound), 1.77 µM; with HT29 (72 hours with compound), 9.71 µM; in the data set with MDA-MB-231 (72 hours with compound), 5.17 µM.

As to `O=C1NC(=O)C(c2cn3c4c(cccc24)CCC3)=C1c1cccc2ccccc12` [Example 19, 3-(5,6-Dihydro-4H-pyrrolo[3,2,1-ij]quinolin-1-yl)-4-naphthalene-1-yl-pyrrole-2,5-dione], the half-inhibitory concentration (IC50) was 39.6 µM with SK-MEL-28; more than 100 µM with DU-145; 46.8 µM in the data set on HT29 (setting [3]); 14 µM in the data set on K562; more than 100 µM in the data set on MCF7; 36.2 µM in the data set with SKOV-3. Further, the 50% inhibitory concentration (IC50) in the data set with A549 came to 41 µM; in the data set with MDA-MB-231 (setting [4]), 70.5 µM; in the data set with PC-3 it was 96.2 µM; in the data set with HCT-116, 26.2 µM.

Take `O=C1NC(=O)C(c2cn3c4c(cccc24)CCC3)=C1c1ccccc1Br` [Example 21, 3-(5,6-Dihydro-4H-pyrrolo[3,2,1-ij]quinolin-1-yl)-4-(2-bromo-phenyl)-pyrrole-2,5-dione]: the 50% inhibitory concentration (IC50) was more than 100 µM in the data set on SK-MEL-28; 21.8 µM with DU-145; 56.8 µM in the data set with HT29 (setting [3]); 6.42 µM in the data set on K562; more than 100 µM with MCF7; 30.2 µM with SKOV-3. Also, the IC50 amounted to 28.6 µM with A549, 30 µM in the data set with MDA-MB-231 (setting [4]), 22.2 µM in the data set on PC-3 and 5.44 µM in the data set on HCT-116.

Molecule `COc1cccc(C2=C(c3cn4c5c(cccc35)CCC4)C(=O)NC2=O)c1` [Example 65, 3-(5,6-dihydro-4H-pyrrolo[3,2,1-ij]quinolin-1-yl)-4-(3-methoxyphenyl)-1H-pyrrole-2,5-dione] registered a melting point of 99 to 101 °C. In the data set on HT29 (setting [3]), the IC50 is 35 µM. The IC50 in the data set with MDA-MB-231 (setting [4]) turned out to be 60.8 µM.

As to `O=C1NC(=O)C(c2cn3c4c(cccc24)CCC3)=C1c1ccc(OCc2ccccc2)cc1` [Example 66, 3-[4-(benzyloxy)phenyl]-4-(5,6-dihydro-4H-pyrrolo[3,2,1-ij]quinolin-1-yl)-1H-pyrrole-2,5-dione], the melting point was in the range of 262 to 265 °C. The IC50 with HT29 (setting [3]) was more than 100 µM. Further, the IC50 in the data set on MDA-MB-231 (setting [4]) is more than 100 µM.

“(±)-Trans-3-(5,6-dihydro-4H-pyrrolo[3,2,1-ij]quinolin-1yl)-4-(N-methylindol-3-yl)pyrrolidine-2,5-dione [Example 51]”: the results for the IC50 with NCI-H69 (72 hours with compound) and in the data set with HT29 (72 hours with compound) were 37.7 µM and 66.8 µM, respectively.
